Measured values published in patent US12409179B2 (GENEROS BIOPHARMA LTD., priority 2019, dated 2025).

How the values were obtained:
[1] = tested on: adjuvant-induced arthritis in rats; test: Embodiment 3: oral Nib1 and methotrexate in adjuvant-induced arthritis in rats (joint score, paw volume, AUC); type: in vivo, Lewis rat
[2] = rat, in vivo, po, 10 mg/kg
[3] = tested on: rat adjuvant-induced arthritis model; test: Embodiment 2: oral Nib1 and medium-dose methotrexate in rat adjuvant-induced arthritis model (joint score, paw volume, AUC); type: in vivo, Lewis rat; details: MTX 0.5 mpk, Nib1 5 mpk, Nib1 5 mpk + MTX 0.5 mpk; for Total area (AUC of changes in paw volume): Embodiment 2, Tofacitinib 5 mpk, in mL·day
[4] = rat, in vivo
[5] = tested on: Lewis rat adjuvant-induced arthritis model; test: Embodiment 1: oral Nib1 and injected methotrexate in Lewis rat adjuvant-induced arthritis model (joint score, paw volume, AUC); type: in vivo
[6] = tested on: rheumatoid arthritis; details: cited from earlier work
[7] = Embodiment 3, oral, Tofacitinib 5 mpk, MTX 0.05 mpk, Nib1 1 mpk, Nib1 1 mpk + MTX 0.05 mpk
[8] = day 0, oral, Tofacitinib 5 mpk, MTX 0.05 mpk, Nib1 1 mpk, Nib1 1 mpk + MTX 0.05 mpk
[9] = day 8, oral, Tofacitinib 5 mpk, MTX 0.05 mpk, Nib1 1 mpk, Nib1 1 mpk + MTX 0.05 mpk
[10] = day 11, oral, Tofacitinib 5 mpk, MTX 0.05 mpk, Nib1 1 mpk, Nib1 1 mpk + MTX 0.05 mpk
[11] = day 13, oral, Tofacitinib 5 mpk, MTX 0.05 mpk, Nib1 1 mpk, Nib1 1 mpk + MTX 0.05 mpk
[12] = day 15, oral, Tofacitinib 5 mpk, MTX 0.05 mpk, Nib1 1 mpk, Nib1 1 mpk + MTX 0.05 mpk
[13] = day 18, oral, Tofacitinib 5 mpk, MTX 0.05 mpk, Nib1 1 mpk, Nib1 1 mpk + MTX 0.05 mpk
[14] = day 21, oral, Tofacitinib 5 mpk, MTX 0.05 mpk, Nib1 1 mpk, Nib1 1 mpk + MTX 0.05 mpk
[15] = day 24, oral, Tofacitinib 5 mpk, MTX 0.05 mpk, Nib1 1 mpk, Nib1 1 mpk + MTX 0.05 mpk

Structure (SMILES): O=c1[nH]c2ccccc2n1C1CCN(CCCC(c2ccc(F)cc2)c2ccc(F)cc2)CC1 [Nib1, Pimozide]
- Relative to G2 percentage (%) (AUC of changes in paw volume) ([1]; Embodiment 3, G2 = Vehicle, oral, Tofacitinib 5 mpk, MTX 0.05 mpk, Nib1 1 mpk, Nib1 1 mpk + MTX 0.05 mpk): 74.9%
- change ratio of ΔAUC relative to the vehicle group, as fraction ([1]; Embodiment 3, methotrexate 0.05 mg/kg, Nib1 1 mg/kg): 0.749
- Area under the curve AUC (ml*day) of changes in paw volume [1, 7]: 14.26 mL·days
- Clinical scoring of arthritis (sum of the scores of the quadrupedal joints), Average value [1, 8]: 0.00
- volume of the right hind foot, Average value [1, 8]: 1.31 mL
- Clinical scoring of arthritis (sum of the scores of the quadrupedal joints), Average value [1, 9]: 0.78
- volume of the right hind foot, Average value [1, 9]: 1.44 mL
- Clinical scoring of arthritis (sum of the scores of the quadrupedal joints), Average value [1, 10]: 3.33
- volume of the right hind foot, Average value [1, 10]: 1.79 mL
- Clinical scoring of arthritis (sum of the scores of the quadrupedal joints), Average value [1, 11]: 5.22
- Clinical scoring of arthritis (sum of the scores of the quadrupedal joints), Average value [1, 12]: 6.33
- volume of the right hind foot, Average value [1, 12]: 2.41 mL
- Clinical scoring of arthritis (sum of the scores of the quadrupedal joints), Average value [1, 13]: 7.89
- volume of the right hind foot, Average value [1, 13]: 2.73 mL
- Clinical scoring of arthritis (sum of the scores of the quadrupedal joints), Average value [1, 14]: 8.56
- volume of the right hind foot, Average value ([1]; day 22, oral, Tofacitinib 5 mpk, MTX 0.05 mpk, Nib1 1 mpk, Nib1 1 mpk + MTX 0.05 mpk): 3.10 mL
- Clinical scoring of arthritis (sum of the scores of the quadrupedal joints), Average value [1, 15]: 8.67
- changes in body weight over time (FIG. 1) [2]: lower than other groups, but there was no significant difference
- Relative to G2 percentage (%) (AUC of changes in paw volume) ([3]; Embodiment 2, G2 = Vehicle, Tofacitinib 5 mpk): 56.9%
- Total area (AUC of changes in paw volume) [3]: 21.32
- Clinical scoring of arthritis (sum of the scores of the quadrupedal joints), Average value ([3]; day 0, Tofacitinib 5 mpk): 0
- paw volume (right hind foot), Average value ([3]; day 0, Tofacitinib 5 mpk): 1.02 mL
- Clinical scoring of arthritis (sum of the scores of the quadrupedal joints), Average value ([3]; day 7, Tofacitinib 5 mpk): 0.63
- paw volume (right hind foot), Average value ([3]; day 7, Tofacitinib 5 mpk): 1.71 mL
- Clinical scoring of arthritis (sum of the scores of the quadrupedal joints), Average value ([3]; day 13, Tofacitinib 5 mpk): 1.75
- paw volume (right hind foot), Average value ([3]; day 13, Tofacitinib 5 mpk): 1.88 mL
- Clinical scoring of arthritis (sum of the scores of the quadrupedal joints), Average value ([3]; day 15, Tofacitinib 5 mpk): 5.50
- paw volume (right hind foot), Average value ([3]; day 15, Tofacitinib 5 mpk): 1.94 mL
- Clinical scoring of arthritis (sum of the scores of the quadrupedal joints), Average value ([3]; day 17, Tofacitinib 5 mpk): 6.75
- paw volume (right hind foot), Average value ([3]; day 17, Tofacitinib 5 mpk): 2.05 mL
- Clinical scoring of arthritis (sum of the scores of the quadrupedal joints), Average value ([3]; day 20, Tofacitinib 5 mpk): 7.00
- paw volume (right hind foot), Average value ([3]; day 20, Tofacitinib 5 mpk): 2.05 mL
- Clinical scoring of arthritis (sum of the scores of the quadrupedal joints), Average value ([3]; day 22, Tofacitinib 5 mpk): 7.25
- paw volume (right hind foot), Average value ([3]; day 22, Tofacitinib 5 mpk): 2.00 mL
- Clinical scoring of arthritis (sum of the scores of the quadrupedal joints), Average value ([3]; day 24, Tofacitinib 5 mpk): 7.25
- paw volume (right hind foot), Average value ([3]; day 24, Tofacitinib 5 mpk): 2.06 mL
- Clinical scoring of arthritis (sum of the scores of the quadrupedal joints), Average value ([3]; day 27, Tofacitinib 5 mpk): 7.00
- paw volume (right hind foot), Average value ([3]; day 27, Tofacitinib 5 mpk): 2.20 mL
- Clinical scoring of arthritis (sum of the scores of the quadrupedal joints), Average value ([3]; day 29, Tofacitinib 5 mpk): 6.88
- paw volume (right hind foot), Average value ([3]; day 29, Tofacitinib 5 mpk): 2.16 mL
- Clinical scoring of arthritis (sum of the scores of the quadrupedal joints), Average value ([3]; day 31, Tofacitinib 5 mpk): 7.13
- paw volume (right hind foot), Average value ([3]; day 31, Tofacitinib 5 mpk): 2.16 mL
- Clinical scoring of arthritis (sum of the scores of the quadrupedal joints), Average value ([3]; day 34, Tofacitinib 5 mpk): 6.88
- paw volume (right hind foot), Average value ([3]; day 34, Tofacitinib 5 mpk): 1.02 mL
- changes in body weight over time (Table 5, FIG. 5) [4]: decreased significantly in the initial stage, and gradually recovered in the later stage
- the therapeutic effects compared with vehicle group (paw volume x time AUC %) ([5]; methotrexate 0.5 mg/kg intraperitoneal once per week, Nib1 10 mg/kg oral once every two days): 66.6%
- paw volume AUC relative to vehicle group, as fraction ([5]; methotrexate 0.5 mg/kg intraperitoneal, Nib1 10 mg/kg oral): 0.666

Structure (SMILES): CN(Cc1cnc2nc(N)nc(N)c2n1)c1ccc(C(=O)N[C@@H](CCC(=O)O)C(=O)O)cc1 [MTX, Methotrexate]
- Area under the curve AUC (ml*day) of changes in paw volume [1, 7]: 19.31 mL·days
- Clinical scoring of arthritis (sum of the scores of the quadrupedal joints), Average value [1, 8]: 0.00
- volume of the right hind foot, Average value [1, 8]: 1.30 mL
- Clinical scoring of arthritis (sum of the scores of the quadrupedal joints), Average value [1, 9]: 0.44
- volume of the right hind foot, Average value [1, 9]: 1.38 mL
- Clinical scoring of arthritis (sum of the scores of the quadrupedal joints), Average value [1, 10]: 4.33
- volume of the right hind foot, Average value [1, 10]: 2.14 mL
- Clinical scoring of arthritis (sum of the scores of the quadrupedal joints), Average value [1, 11]: 7.33
- Clinical scoring of arthritis (sum of the scores of the quadrupedal joints), Average value [1, 12]: 9.00
- volume of the right hind foot, Average value [1, 12]: 2.88 mL
- Clinical scoring of arthritis (sum of the scores of the quadrupedal joints), Average value [1, 13]: 10.22
- volume of the right hind foot, Average value [1, 13]: 3.14 mL
- Clinical scoring of arthritis (sum of the scores of the quadrupedal joints), Average value [1, 14]: 10.78
- Clinical scoring of arthritis (sum of the scores of the quadrupedal joints), Average value [1, 15]: 10.89
- Total area (AUC of changes in paw volume) [3]: 29.94
- Clinical scoring of arthritis (sum of the scores of the quadrupedal joints), Average value ([3]; day 0, Tofacitinib 5 mpk): 0
- paw volume (right hind foot), Average value ([3]; day 0, Tofacitinib 5 mpk): 1.02 mL
- Clinical scoring of arthritis (sum of the scores of the quadrupedal joints), Average value ([3]; day 7, Tofacitinib 5 mpk): 0.75
- paw volume (right hind foot), Average value ([3]; day 7, Tofacitinib 5 mpk): 1.98 mL
- Clinical scoring of arthritis (sum of the scores of the quadrupedal joints), Average value ([3]; day 13, Tofacitinib 5 mpk): 1.75
- paw volume (right hind foot), Average value ([3]; day 13, Tofacitinib 5 mpk): 2.10 mL
- Clinical scoring of arthritis (sum of the scores of the quadrupedal joints), Average value ([3]; day 15, Tofacitinib 5 mpk): 5.50
- paw volume (right hind foot), Average value ([3]; day 15, Tofacitinib 5 mpk): 2.28 mL
- Clinical scoring of arthritis (sum of the scores of the quadrupedal joints), Average value ([3]; day 17, Tofacitinib 5 mpk): 7.00
- paw volume (right hind foot), Average value ([3]; day 17, Tofacitinib 5 mpk): 2.43 mL
- Clinical scoring of arthritis (sum of the scores of the quadrupedal joints), Average value ([3]; day 20, Tofacitinib 5 mpk): 7.50
- paw volume (right hind foot), Average value ([3]; day 20, Tofacitinib 5 mpk): 2.48 mL
- Clinical scoring of arthritis (sum of the scores of the quadrupedal joints), Average value ([3]; day 22, Tofacitinib 5 mpk): 7.63
- paw volume (right hind foot), Average value ([3]; day 22, Tofacitinib 5 mpk): 2.50 mL
- Clinical scoring of arthritis (sum of the scores of the quadrupedal joints), Average value ([3]; day 24, Tofacitinib 5 mpk): 7.63
- paw volume (right hind foot), Average value ([3]; day 24, Tofacitinib 5 mpk): 2.56 mL
- Clinical scoring of arthritis (sum of the scores of the quadrupedal joints), Average value ([3]; day 27, Tofacitinib 5 mpk): 7.50
- paw volume (right hind foot), Average value ([3]; day 27, Tofacitinib 5 mpk): 2.62 mL
- Clinical scoring of arthritis (sum of the scores of the quadrupedal joints), Average value ([3]; day 29, Tofacitinib 5 mpk): 7.63
- paw volume (right hind foot), Average value ([3]; day 29, Tofacitinib 5 mpk): 2.65 mL
- Clinical scoring of arthritis (sum of the scores of the quadrupedal joints), Average value ([3]; day 31, Tofacitinib 5 mpk): 7.63
- paw volume (right hind foot), Average value ([3]; day 31, Tofacitinib 5 mpk): 2.66 mL
- Clinical scoring of arthritis (sum of the scores of the quadrupedal joints), Average value ([3]; day 34, Tofacitinib 5 mpk): 7.50
- paw volume (right hind foot), Average value ([3]; day 34, Tofacitinib 5 mpk): 1.02 mL
- main side effects ([6]; rheumatoid arthritis therapy): liver and gastrointestinal toxicity
- patients who stop taking the drug because of side effects ([6]; within a year): about 50%
